Data from patent US9718809B2, “Bisarylsulfonamides useful in the treatment of inflammation and cancer” (Kancera AB, priority 2011, dated 2017).
Where a name gives a salt, the structure may show the parent alone.

Tested on: F-2,6-P2 in PANC-1 cells
Test: Quantification of F-2,6-P2 (Van Schaftingen coupled enzyme assay) in PANC-1 cells
Assay type: cell-based, human
Settings: Homo sapiens; PANC-1 cells; read-out: IC50 based on quantification of F-2,6-P2
Description: A method for quantification of F-2,6-P2 has been described by Van Schaftingen et al. (1982) Eur. J. Biochem. 129, 191-5. This sensitive assay is based on the potent activation of pyrophosphate dependent phosphofructokinase-1 (PPi-PFK) from potato tubers by F-2,6-P2. The use of a series of coupled enzymes leads to a consumption of NADH (nicotinamide adenine dinucleotide) that can be followed spectrophotometrically (an updated protocol is available in Van Schaftingen, (1984) Methods of Enzymatic Analysis (Bergmeyer, H. U., ed.), 3rd edn., vol. 6, pp. 335-341, Verlag Chemie, Weinheim). A protocol for measurements in 96-well microtiter plate format is also available (Bruni et al., (1989) Anal. Biochem. 178, 324-6).
The levels of F-2,6-P2 have been determined using the van Shaftingen assay as described in the protocol below, in six different cancer cell lines endogenously expressing varying levels of the different isoforms of PFK-2/BPase-2 (MCF-7, PANC-1, NUGC-3, SW480, SW620 and MIA PaCa-2). All reagents were purchased from commercial sources or prepared in-house.
Cell line B (PANC-1, human pancreatic carcinoma cell line): PANC-1 cells (ATCC-CRL-1469), lot. no. 58564651. Cells were seeded at a concentration of ˜250 000 cells/mL in 100 μL growth medium (˜25 000 cells/well).
Growth medium (cell lines B-F): Dulbecco's Modified Eagle's Medium, DMEM, VWR, LONZ12-604F; 10% FBS, Invitrogen, 10270-106.
Starvation medium (cell lines A-F): DMEM/F12 without phenol red and glucose free, SVA, 991373; 0.25% FBS, Invitrogen, 10270-106.
Induction medium (cell lines A-F): DMEM/F12 without phenol red and glucose free, SVA, 991373; 0.25% FBS, Invitrogen, 10270-106 (same as starvation medium).
Cells were seeded in 96-well Corning Costar tissue culture plates (CLS3595, Sigma-Aldrich) using the concentrations specified above for the different cell lines A-F and incubated over night at 37° C. and 5% CO2. Row A in the plate was left empty and the cell lines added to rows B-H. Next day the growth medium was discarded and replaced with 100 μL starvation medium. The plates were incubated for 18 h at 37° C. and 5% CO2. After 18 h of starvation the cells were induced with 100 μL compound or control solutions. Compounds were either tested in two concentrations (50 μM and 10 μM) or in dose response curves starting from 50 μM. The final DMSO concentration in assay plates was 0.5%. Also a dose response curve of a reference inhibitor was included in row H on each plate. All compounds were tested in duplicate plates. Compounds (in 96 well CLS 3365, Sigma-Aldrich plates) were serial diluted in DMSO from 10 mM compound DMSO stock solutions with Janus (automated liquid handling workstation from PerkinElmer). Five μL were transferred to a Greiner deep well plate (736-0155, VWR) with 495 μL starvation medium. The final start concentration of compounds in the dilution plate was 100 μM, 1% DMSO. For compounds tested as single points, 10 mM compound solutions were diluted five fold in DMSO to 2 mM, followed by the transfer of 5 μL to separate dilution plates with 495 μL starvation medium. The final concentrations of compounds in these dilution plates were 100 or 20 μM, respectively, and final concentration of DMSO was 1%. The plates were incubated at 37° C. and 5% CO2 for 1 h, followed by the addition of 10 μL 20 mM D-glucose in starvation medium. Controls, with and without 1 mM glucose, were included in row B. The final assay volume was 210 μL per well. After 2 h of incubation at 37° C. and 5% CO2, the supernatants were discarded and the cells lysed by the addition of 25 μL 250 mM NaOH. The plates were incubated at 37° C. and 5% CO2 for 5 min followed by an addition of 75 μL MilliQ dH2O. The supernatants were further diluted with 210 μL MilliQ dH2O to a final concentration of 20 mM NaOH. 200 μL were transferred to NUNC 96-well plates (7322661, VWR) and the plates were sealed and stored at −20° C. until analysis. […]

SMILES | IC50
COC(=O)c1ccc(NS(=O)(=O)c2cccc(-c3cccc(C(=O)OC(C)C)c3)c2)cc1O [Example 128, 1-Methylethyl 3′-{[3-hydroxy-4-(methoxycarbonyl)phenyl]sulfamoyl}biphenyl-3-carboxylate] | 13.3 µM
COC(=O)c1ccc(NS(=O)(=O)c2cc(-c3cccnc3)c(Cl)s2)cc1O [Example 111, Methyl 4-{[(5-chloro-4-pyridin-3-ylthiophen-2-yl)sulfonyl]amino}-2-hydroxybenzoate] | 4.6 µM
O=C(OCCCN1CCOCC1)c1ccc(NS(=O)(=O)c2cc(Cl)c(Cl)s2)cc1O [Example 63, 3-Morpholin-4-ylpropyl 4-{[(4,5-dichlorothiophen-2-yl)sulfonyl]amino}-2-hydroxybenzoate trifluoroacetate] | 4 µM
COC(=O)c1ccc(NS(=O)(=O)c2cccc(-c3ccc(C(C)=O)s3)c2)cc1O [Example 95, Methyl 4-({[3-(5-acetyl-2-thienyl)phenyl]sulfonyl}amino)-2-hydroxybenzoate] | 1.7 µM
COCCOC(=O)c1ccc(NS(=O)(=O)c2c(Cl)sc(Cl)c2Br)cc1O [Example 197, 2-Methoxyethyl 4-{[(4-bromo-2,5-dichlorothiophen-3-yl)sulfonyl]amino}-2-hydroxybenzoate] | 3.5 µM
O=C(OCCn1cccc1)c1ccc(NS(=O)(=O)c2cc(Cl)c(Cl)s2)cc1O [Example 61, 2-(1H-Pyrrol-1-yl)ethyl 4-{[(4,5-dichlorothiophen-2-yl)sulfonyl]amino}-2-hydroxybenzoate] | 0.6 µM
COCC(COC)OC(=O)c1ccc(NS(=O)(=O)c2cc(-c3cccc(F)c3)c(Cl)s2)cc1O [Example 222, 2-Methoxy-1-(methoxymethyl)ethyl 4-({[5-chloro-4-(3-fluorophenyl)-2-thienyl]sulfonyl}amino)-2-hydroxybenzoate] | 2 µM
COC(=O)c1ccc(NS(=O)(=O)c2cc(C)c(Br)s2)cc1O [Example 58, Methyl 4-{[(5-bromo-4-methylthiophen-2-yl)sulfonyl]amino}-2-hydroxybenzoate] | 5.6 µM

Next, values leading:

IC50 | SMILES
5.7 µM | CCOCCOC(=O)c1ccc(NS(=O)(=O)c2cc(Cl)sc2Cl)cc1O [Example 66, 2-Ethoxyethyl 4-{[(2,5-dichloro-3-thienyl)sulfonyl]amino}-2-hydroxybenzoate]
6.8 µM | O=C(OCCCN1CCOCC1)c1ccc(NS(=O)(=O)c2cc(Cl)cc(Cl)c2)cc1O [Example 187, 3-Morpholin-4-ylpropyl 4-{[(3,5-dichlorophenyl)sulfonyl]amino}-2-hydroxybenzoate trifluoroacetate]
10.8 µM | COC(=O)c1ccc(NS(=O)(=O)c2csc3ccccc23)cc1O [Example 52, Methyl 4-[(1-benzothien-3-ylsulfonyl)amino]-2-hydroxybenzoate]
7.7 µM | COC(=O)c1ccc(NS(=O)(=O)c2cc(-c3ccc(NS(C)(=O)=O)cc3)c(Cl)s2)cc1O [Example 108, Methyl 4-{[(5-chloro-4-{4-[(methylsulfonyl)amino]phenyl}thiophen-2-yl)sulfonyl]amino}-2-hydroxybenzoate]
1.9 µM | O=C(OCCCNc1cccnc1)c1ccc(NS(=O)(=O)c2cccc(-c3cc(F)ccc3O)c2)cc1O [Example 230, 3-(Pyridin-3-ylamino)propyl 4-{[(5′-fluoro-2′-hydroxybiphenyl-3-yl)sulfonyl]amino}-2-hydroxybenzoate trifluoroacetate]
0.2 µM | CCCCOC(=O)c1ccc(NS(=O)(=O)c2cc(Cl)c(Cl)s2)cc1O [Example 70, Butyl 4-{[(4,5-dichloro-2-thienyl)sulfonyl]amino}-2-hydroxybenzoate]
2.4 µM | COC(=O)c1ccc(NS(=O)(=O)c2cc(-c3cccc(C(=O)N(C)C)c3)c(Cl)s2)cc1O [Example 143, Methyl 4-[({5-chloro-4-[3-(dimethylcarbamoyl)phenyl]thiophen-2-yl}sulfonyl)amino]-2-hydroxybenzoate]
5.7 µM | COC(=O)c1ccc(NS(=O)(=O)c2scc(Br)c2Br)cc1O [Example 57, Methyl 4-{[(3,4-dibromothiophen-2-yl)sulfonyl]amino}-2-hydroxybenzoate]
2 µM | COC(=O)c1ccc(NS(=O)(=O)c2ccc(-c3cc(F)ccc3F)s2)cc1O [Example 118, Methyl 4-({[5-(2,5-difluorophenyl)thiophen-2-yl]sulfonyl}amino)-2-hydroxybenzoate]
2.1 µM | COC(=O)c1ccc(NS(=O)(=O)c2cccc3c(N(C)C)cccc23)cc1O [Example 40, Methyl 4-({[5-(dimethylamino)naphthalen-1-yl]sulfonyl}amino)-2-hydroxybenzoate trifluoroacetate]

Same assay, conditions: at 12.5-50 μM in PANC-1 cells

SMILES | inhibition (F-2,6-P2 levels)
COC(=O)c1ccc(NS(=O)(=O)c2cnc(Cl)c(-c3cccc(F)c3)c2)cc1O [Example 83, Methyl 4-({[6-chloro-5-(3-fluorophenyl)pyridin-3-yl]sulfonyl}amino)-2-hydroxybenzoate] | ≥ 50%
COC(=O)c1ccc(NS(=O)(=O)c2cccc(-c3ccc(SC)cc3)c2)cc1O [Example 98, Methyl 2-hydroxy-4-({[4′-(methylsulfanyl)biphenyl-3-yl]sulfonyl}amino)benzoate] | ≥ 50%
O=C(O)C(F)(F)F.O=C(OCCCn1ccnc1)c1ccc(NS(=O)(=O)c2cc(Cl)c(Cl)s2)cc1O [Example 64, 3-(1H-Imidazol-1-yl)propyl 4-{[(4,5-dichlorothiophen-2-yl)sulfonyl]amino}-2-hydroxybenzoate trifluoroacetate] | ≥ 50%
COC(=O)c1ccc(NS(=O)(=O)c2cccc(OC(F)F)c2)cc1O [Example 31, Methyl 4-({[3-(difluoromethoxy)phenyl]sulfonyl}amino)-2-hydroxybenzoate] | ≥ 50%
O=C(Oc1ccccc1)c1ccc(NS(=O)(=O)c2cc(Cl)c(Cl)s2)cc1O [Example 73, Phenyl 4-{[(4,5-dichloro-2-thienyl)sulfonyl]amino}-2-hydroxybenzoate] | ≥ 50%
COC(=O)c1ccc(NS(=O)(=O)c2ccc(C(C)(C)C)cc2)cc1O [Example 36, Methyl 4-{[(4-tert-butylphenyl)sulfonyl]amino}-2-hydroxybenzoate] | ≥ 50%
COC(=O)c1ccc(NS(=O)(=O)c2cccc(C(C)=O)c2)cc1O [Example 129, Methyl 4-{[(3-acetylphenyl)sulfonyl]amino}-2-hydroxybenzoate] | ≥ 50%
COCc1cccc(OCCOC(=O)c2ccc(NS(=O)(=O)c3cc(Cl)c(Cl)s3)cc2O)c1 [Example 227, 2-[3-(Methoxymethyl)phenoxy]ethyl 4-{[(4,5-dichloro-2-thienyl)sulfonyl]amino}-2-hydroxybenzoate] | ≥ 50%
CC(=O)Oc1cc(NS(=O)(=O)c2cccc3ccccc23)ccc1C(=O)OCc1ccccc1 [Example 140, Benzyl 2-acetoxy-4-[(1-naphthylsulfonyl)amino]benzoate] | ≥ 50%
COC(=O)c1cccc(-c2cc(S(=O)(=O)Nc3ccc(C(=O)OC)c(O)c3)sc2Cl)c1 [Example 77, Methyl 4-[({5-chloro-4-[3-(methoxycarbonyl)phenyl]thiophen-2-yl}sulfonyl)amino]-2-hydroxybenzoate] | ≥ 50%
